PMC5534107, “Sensitization of ASIC3 by proteinase-activated receptor 2 signaling contributes to acidosis-induced nociception” (Journal of Neuroinflammation, 2017)

Tested on: rat DRG neurons
Test: Current clamp of acidosis-evoked action potentials (spikes) in rat DRG neurons
Assay type: cell-based
Settings: PAR2-AP 10^−5 M for 1 min; pH 6.6 for 5 s; capsazepine 10 μM; control 3.5 ± 0.6; P < 0.05; n = 9
From the text: The experimental protocol was approved by the animal research ethics committee of Hubei University of Science and Technology (No. 2016–67). All procedures conformed to international guidelines on the ethical use of animals, and every effort was made to minimize the number of animals used and their sufferings. Five- to 6-week-old Sprague–Dawley male rats were anesthetized with 7% chloral hydrate and then decapitated. The DRGs were taken out and transferred immediately into Dulbecco’s modified Eagle’s medium (DMEM, Sigma) at pH 7.4. After the removal of the surrounding connective tissues, the DRGs were minced with fine spring scissors and the ganglion fragments were placed in a flask containing 5 ml of DMEM in which trypsin (type II-S, Sigma) 0.5 mg/ml, collagenase (type I-A, Sigma) 1.0 mg/ml, and DNase (type IV, Sigma) 0.1 mg/ml had been dissolved and incubated at 35 °C in a shaking water bath for 25–30 min. Soybean trypsin inhibitor (type II-S, Sigma) 1.25 mg/ml was then added to stop trypsin digestion. The incubating solution was then replaced by external solution. […]
Drugs purchased from Sigma and used in the experiments include hydrochloric acid, 2-furoyl-LIGRLO-NH2 (a PAR2-activating peptide (PAR2-AP)), trypsin, FSLLRY-NH2, APETx2, and capsazepine. […] The application pipette tips were positioned ∼30 μm away from the recorded neurons. […]

## 2-furoyl-LIGRLO-NH2 [PAR2-AP]
  mean number of spikes induced by acidosis after PAR2-AP pretreatment: 6.3 ± 0.9
